Assay results published in US20240165244A1 (Prelude Therapeutics Incorporated, priority 2022, published 2024).

Legend:
SMARCA2 = target: T1, SMARCA2 (Homo sapiens, UniProt P51531); test: SMARCA2 HiBiT degradation assay in HeLa cells; format: cell-based; conditions: 18 hours, highest concentration 10 μM
T1 construct: SMARCA2-HiBiT knock-in Hela monoclonal cell (CS302366); host or cells: HeLa monoclonal cells with heterozygous HiBiT knock-in at the endogenous SMARCA2 locus
Method: (§1) SMARCA2 HiBiT and SMARCA4 HiBiT Degradation Assay
HiBiT peptide knock-in of SMARCA2 in LgBiT expressing HEK293T cells was performed by CRISPR-mediated tagging system as described Promega. The homozygous HiBiT knock-in on c-terminus SMARCA2 was confirmed by sanger sequence. SMARCA2-HiBiT knock-in Hela monoclonal cell (CS302366) and SMARCA4-HiBiT knock-in Hela monoclonal cell (CS3023226) were purchased from Promega. The heterozygous HiBiT-knock-in was confirmed by sanger sequence in both SMARCA2-HiBiT and SMARCA4-HiBiT monoclonal cells.
(§2) SMARCA2 HiBiT and SMARCA4 HiBiT Degradation Assay in HeLa Cells
Dispense 10 ul aliquot of prepared Hela-SMARCA2-HiBiT or Hela-SMARCA4-HiBiT cells (1:1 ratio of cells:Trypan Blue (#1450013, Bio-Rad)) onto cell counting slide (#145-0011, Bio-Rad) and obtain cell density and cell viability using cell counter (TC20, Bio-Rad). Remove appropriate volume of resuspended cells from culture flask to accommodate 2500 cells/well @ 20 μL/well. Transfer Hela-HiBiT cells to 50 mL conical (#430290, Corning). Spin down at 1000 rpm for 5 min using tabletop centrifuge (SPINCHRON 15, Beckman). Discard supernatant and resuspend cell pellet in modified EMEM (#30-2003, ATCC) cell culture media containing 10% FBS (F2422-500ML, Sigma), and 1× Penicillin/Streptomycin ([…]) (30-002-CI, Corning) to a cell density of 125,000 cells/mL. Dispense 20 μLof resuspended Hela-HiBit cells per well in 384-well TC treated plate (#12-565-343, Thermo Scientific) using standard cassette (#50950372, Thermo Scientific) on Multidrop Combi (#5840310, Thermo Scientific) inside laminar flow cabinet.
Compounds were dissolved in DMSO to make 10 mM stock and 3-fold series dilutions were further conducted keeping the highest concentration 10 μM. Dispense test compounds onto plates using digital liquid dispenser (D300E, Tecan). Incubate plates in humidified tissue culture incubator @37° C. for 18 hours. Add 20 μL of prepared Nano-Glo® HiBiT Lytic detection buffer (N3050, Promega) to each well of 384-well plate using small tube cassette (#24073295, Thermo Scientific) on Multidrop Combi, incubate @ RT for 30-60 min. Read plates on microplate reader (Envision 2105, PerkinElmer) using 384 well Ultra-Sensitive luminescence mode. Raw data files and compound information reports are swept into centralized data lake and deconvoluted using automated scripts designed by TetraScience, Inc. Data analysis, curve-fitting and reporting done in Dotmatics Informatics Suite using Screening Ultra module.

SMARCA4 = target: T2, SMARCA4 (Homo sapiens, UniProt P51532); test: SMARCA4 HiBiT degradation assay in HeLa cells; format: cell-based; conditions: 18 hours, highest concentration 10 μM
T2 construct: SMARCA4-HiBiT knock-in Hela monoclonal cell (CS3023226); host or cells: HeLa monoclonal cells with heterozygous HiBiT knock-in at the endogenous SMARCA4 locus
Method: as §1
HiBiT peptide knock-in of SMARCA2 in LgBiT expressing HEK293T cells was performed by CRISPR-mediated tagging system as described Promega. […] SMARCA2-HiBiT knock-in Hela monoclonal cell (CS302366) and SMARCA4-HiBiT knock-in Hela monoclonal cell (CS3023226) were purchased from Promega.
as §2
Remove appropriate volume of resuspended cells from culture flask to accommodate 2500 cells/well @ 20 μL/well. […] Spin down at 1000 rpm for 5 min using tabletop centrifuge (SPINCHRON 15, Beckman).
Dispense test compounds onto plates using digital liquid dispenser (D300E, Tecan). Incubate plates in humidified tissue culture incubator @37° C. for 18 hours. […] Raw data files and compound information reports are swept into centralized data lake and deconvoluted using automated scripts designed by TetraScience, Inc. Data analysis, curve-fitting and reporting done in Dotmatics Informatics Suite using Screening Ultra module.

T2 sequence (P51532 whole entry): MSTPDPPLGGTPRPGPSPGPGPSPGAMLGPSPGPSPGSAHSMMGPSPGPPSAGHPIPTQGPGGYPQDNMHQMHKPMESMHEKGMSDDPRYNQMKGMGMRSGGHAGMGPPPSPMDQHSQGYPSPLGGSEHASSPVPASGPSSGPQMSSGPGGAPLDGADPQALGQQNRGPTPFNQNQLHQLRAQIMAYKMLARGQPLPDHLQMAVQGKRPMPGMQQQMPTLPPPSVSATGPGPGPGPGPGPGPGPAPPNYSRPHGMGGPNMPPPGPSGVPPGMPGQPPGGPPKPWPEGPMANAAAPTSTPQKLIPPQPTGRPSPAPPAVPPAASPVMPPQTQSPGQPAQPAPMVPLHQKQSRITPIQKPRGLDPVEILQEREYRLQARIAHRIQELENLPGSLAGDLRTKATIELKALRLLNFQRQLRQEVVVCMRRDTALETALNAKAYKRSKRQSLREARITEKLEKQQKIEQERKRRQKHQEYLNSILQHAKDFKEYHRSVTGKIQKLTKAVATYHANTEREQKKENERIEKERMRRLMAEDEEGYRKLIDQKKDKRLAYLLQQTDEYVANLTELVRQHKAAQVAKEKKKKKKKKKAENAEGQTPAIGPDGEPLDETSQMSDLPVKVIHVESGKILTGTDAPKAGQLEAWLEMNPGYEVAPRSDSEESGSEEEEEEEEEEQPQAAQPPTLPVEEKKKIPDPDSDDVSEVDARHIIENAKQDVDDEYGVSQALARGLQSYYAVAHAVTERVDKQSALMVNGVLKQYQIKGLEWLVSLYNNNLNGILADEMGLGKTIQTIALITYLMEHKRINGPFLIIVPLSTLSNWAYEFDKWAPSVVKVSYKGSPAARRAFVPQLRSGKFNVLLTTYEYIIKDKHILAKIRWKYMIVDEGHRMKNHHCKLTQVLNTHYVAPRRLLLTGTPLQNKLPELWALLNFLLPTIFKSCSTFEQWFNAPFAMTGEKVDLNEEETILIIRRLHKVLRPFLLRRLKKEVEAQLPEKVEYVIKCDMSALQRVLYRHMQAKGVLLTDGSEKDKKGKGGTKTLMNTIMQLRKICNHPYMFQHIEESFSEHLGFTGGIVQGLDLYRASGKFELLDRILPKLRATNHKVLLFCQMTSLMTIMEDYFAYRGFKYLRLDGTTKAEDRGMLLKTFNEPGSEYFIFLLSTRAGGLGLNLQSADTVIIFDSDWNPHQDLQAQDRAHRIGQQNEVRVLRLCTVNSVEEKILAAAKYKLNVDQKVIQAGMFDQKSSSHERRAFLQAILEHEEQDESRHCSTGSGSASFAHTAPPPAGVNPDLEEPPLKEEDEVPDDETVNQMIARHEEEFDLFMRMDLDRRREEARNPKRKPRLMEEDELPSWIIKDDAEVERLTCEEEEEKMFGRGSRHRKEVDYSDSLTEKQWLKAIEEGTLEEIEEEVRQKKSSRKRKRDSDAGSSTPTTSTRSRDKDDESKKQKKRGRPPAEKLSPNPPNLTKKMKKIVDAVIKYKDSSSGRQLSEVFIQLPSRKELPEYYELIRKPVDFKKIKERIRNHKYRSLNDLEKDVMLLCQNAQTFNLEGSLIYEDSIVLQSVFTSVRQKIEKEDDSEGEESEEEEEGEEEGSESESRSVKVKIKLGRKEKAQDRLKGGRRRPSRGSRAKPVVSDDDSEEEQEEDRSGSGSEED
T1 sequence (P51531 whole entry): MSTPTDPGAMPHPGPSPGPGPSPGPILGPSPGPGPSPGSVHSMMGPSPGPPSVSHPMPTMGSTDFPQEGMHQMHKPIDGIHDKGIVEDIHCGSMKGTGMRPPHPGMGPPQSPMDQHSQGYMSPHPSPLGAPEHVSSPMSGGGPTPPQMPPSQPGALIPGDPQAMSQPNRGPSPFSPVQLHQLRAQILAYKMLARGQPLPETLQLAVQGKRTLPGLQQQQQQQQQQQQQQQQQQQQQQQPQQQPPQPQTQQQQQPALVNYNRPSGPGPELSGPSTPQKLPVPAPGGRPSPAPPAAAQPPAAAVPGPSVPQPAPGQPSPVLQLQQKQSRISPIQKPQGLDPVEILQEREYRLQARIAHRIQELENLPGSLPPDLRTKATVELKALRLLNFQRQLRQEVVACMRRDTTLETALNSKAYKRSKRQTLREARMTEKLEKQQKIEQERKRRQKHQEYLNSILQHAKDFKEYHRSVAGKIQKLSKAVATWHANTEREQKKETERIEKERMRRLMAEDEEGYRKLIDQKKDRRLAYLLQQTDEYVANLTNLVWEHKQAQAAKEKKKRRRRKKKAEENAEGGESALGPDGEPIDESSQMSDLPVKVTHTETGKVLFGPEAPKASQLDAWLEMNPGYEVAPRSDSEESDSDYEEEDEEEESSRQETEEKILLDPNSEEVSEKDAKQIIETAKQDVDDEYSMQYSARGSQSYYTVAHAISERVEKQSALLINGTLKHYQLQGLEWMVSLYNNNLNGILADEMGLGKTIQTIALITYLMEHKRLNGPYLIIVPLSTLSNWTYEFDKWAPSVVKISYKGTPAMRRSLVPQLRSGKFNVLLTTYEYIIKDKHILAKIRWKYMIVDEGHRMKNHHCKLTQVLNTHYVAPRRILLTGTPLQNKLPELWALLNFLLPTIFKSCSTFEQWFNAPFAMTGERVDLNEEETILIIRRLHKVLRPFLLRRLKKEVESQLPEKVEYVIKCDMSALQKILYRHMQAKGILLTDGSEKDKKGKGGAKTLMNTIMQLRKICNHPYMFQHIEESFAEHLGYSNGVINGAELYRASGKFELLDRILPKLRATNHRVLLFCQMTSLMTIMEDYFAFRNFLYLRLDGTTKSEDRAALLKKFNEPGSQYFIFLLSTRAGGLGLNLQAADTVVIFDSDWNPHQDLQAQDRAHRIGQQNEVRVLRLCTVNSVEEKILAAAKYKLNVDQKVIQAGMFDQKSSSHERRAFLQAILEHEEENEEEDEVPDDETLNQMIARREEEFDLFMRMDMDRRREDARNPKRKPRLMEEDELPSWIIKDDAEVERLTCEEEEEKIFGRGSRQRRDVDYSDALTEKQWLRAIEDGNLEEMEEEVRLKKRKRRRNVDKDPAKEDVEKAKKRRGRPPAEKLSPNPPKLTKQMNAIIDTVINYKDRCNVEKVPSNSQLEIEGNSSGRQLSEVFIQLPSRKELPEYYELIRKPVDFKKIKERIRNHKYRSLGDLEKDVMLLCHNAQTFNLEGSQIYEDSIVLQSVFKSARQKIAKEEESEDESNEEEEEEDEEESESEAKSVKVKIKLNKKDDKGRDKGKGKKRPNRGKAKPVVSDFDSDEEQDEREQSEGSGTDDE

Row | DC50 (SMARCA2) [nM] | DC50 (SMARCA4) [nM] | Dmax (SMARCA2) [%] | Dmax (SMARCA4) [%] | SMILES
1 | > 1000 | > 1000 | – | – | O=C1CCC(N2Cc3ccc(N4CCC(Cn5cc(O[C@@H]6C[C@@H]7CNc8nnc(-c9cc(F)cc(F)c9O)cc8N7C6)cn5)CC4)cc3C2=O)C(=O)N1 (stereo partly drawn) [Example 39, 3-(6-(4-((4-(((6aR,8R)-2-(3,5-difluoro-2-hydroxyphenyl)-5,6,6a,7,8,9-hexahydropyrrolo[1′,2′:4,5]pyrazino[2,3-c]pyridazin-8-yl)oxy)-1H-pyrazol-1-yl)methyl)piperidin-1-yl)-1-oxoisoindolin-2-yl)piperidine-2,6-dione]
2 | < 100 | < 100 | > 75 | 50 to 75 | Cc1cc(O[C@@H]2C[C@@H]3CNc4nnc(-c5cc(F)cc(F)c5O)cc4N3C2)ncc1CN1CCN(c2ccc3c(c2)C(=O)N(C2CCC(=O)NC2=O)C3)CC1 (stereo partly drawn) [Example 27, 3-(6-(4-((6-(((6aR,8R)-2-(3,5-difluoro-2-hydroxyphenyl)-5,6,6a,7,8,9-hexahydropyrrolo[1′,2′:4,5]pyrazino[2,3-c]pyridazin-8-yl)oxy)-4-methylpyridin-3-yl)methyl)piperazin-1-yl)-1-oxoisoindolin-2-yl)piperidine-2,6-dione]
3 | < 100 | 100 to 1000 | > 75 | < 50 | CC[C@@]12CNc3nnc(-c4cccc(Cl)c4O)cc3N1C[C@H](Oc1cc(C)c(CN3CCC(c4ccc5c(c4)C(=O)N([C@H]4CCC(=O)NC4=O)C5)CC3)cn1)C2 [Example 100, (S)-3-(6-(1-((6-(((6aR,8R)-2-(3-chloro-2-hydroxyphenyl)-6a-ethyl-5,6,6a,7,8,9-hexahydropyrrolo[1′,2′:4,5]pyrazino[2,3-c]pyridazin-8-yl)oxy)-4-methylpyridin-3-yl)methyl)piperidin-4-yl)-1-oxoisoindolin-2-yl)piperidine-2,6-dione]
4 | < 100 | < 100 | > 75 | > 75 | COc1cc(O[C@@H]2C[C@@H]3CNc4nnc(-c5cccc(Cl)c5O)cc4N3C2)ccc1CN1CCN(c2ccc3c(c2)C(=O)N(C2CCC(=O)NC2=O)C3)CC1 (stereo partly drawn) [Example 21, 3-(6-(4-(4-(((6aR,8R)-2-(3-chloro-2-hydroxyphenyl)-5,6,6a,7,8,9-hexahydropyrrolo[1′,2′:4,5]pyrazino[2,3-c]pyridazin-8-yl)oxy)-2-methoxybenzyl)piperazin-1-yl)-1-oxoisoindolin-2-yl)piperidine-2,6-dione]
5 | < 100 | < 100 | > 75 | > 75 | O=C1CCC(N2Cc3ccc(N4CCN(Cc5ccc(O[C@@H]6C[C@@H]7CNc8nnc(-c9cc(F)cc(F)c9O)cc8N7C6)c(Cl)c5)CC4)cc3C2=O)C(=O)N1 (stereo partly drawn) [Example 6, 3-(6-(4-(3-chloro-4-(((6aR,8R)-2-(3,5-difluoro-2-hydroxyphenyl)-5,6,6a,7,8,9-hexahydropyrrolo[1′,2′:4,5]pyrazino[2,3-c]pyridazin-8-yl)oxy)benzyl)piperazin-1-yl)-1-oxoisoindolin-2-yl)piperidine-2,6-dione]

Further lines, the molecule ahead of its results:

Row | SMILES | DC50 (SMARCA2) [nM] | DC50 (SMARCA4) [nM] | Dmax (SMARCA2) [%] | Dmax (SMARCA4) [%]
6 | Cc1nc(O[C@H]2CN3c4cc(-c5cccc(F)c5O)nnc4NC[C@@]3(C)C2)nc(C)c1CN1CCN(c2ccc3c(c2)C(=O)N([C@H]2CCC(=O)NC2=O)C3)CC1 [Example 75, (S)-3-(6-(4-((2-(((6aR,8R)-2-(3-fluoro-2-hydroxyphenyl)-6a-methyl-5,6,6a,7,8,9-hexahydropyrrolo[1′,2′:4,5]pyrazino[2,3-c]pyridazin-8-yl)oxy)-4,6-dimethylpyrimidin-5-yl)methyl)piperazin-1-yl)-1-oxoisoindolin-2-yl)piperidine-2,6-dione] | < 100 | 100 to 1000 | > 75 | < 50
7 | O=C1CCC(N2Cc3ccc(N4CCN(Cc5ccc(O[C@@H]6C[C@@H]7CNc8nnc(-c9cc(F)cc(F)c9O)cc8N7C6)c(F)c5)CC4)cc3C2=O)C(=O)N1 (stereo partly drawn) [Example 4, 3-(6-(4-(4-(((6aR,8R)-2-(3,5-difluoro-2-hydroxyphenyl)-5,6,6a,7,8,9-hexahydropyrrolo[1′,2′:4,5]pyrazino[2,3-c]pyridazin-8-yl)oxy)-3-fluorobenzyl)piperazin-1-yl)-1-oxoisoindolin-2-yl)piperidine-2,6-dione] | < 100 | < 100 | > 75 | > 75
8 | Cc1cc(O[C@@H]2C[C@@H]3CNc4nnc(-c5cccc(F)c5O)cc4N3C2)ccc1CN1CCN(c2ccc3c(c2)C(=O)N(C2CCC(=O)NC2=O)C3)CC1 (stereo partly drawn) [Example 11, 3-(6-(4-(4-(((6aR,8R)-2-(3-fluoro-2-hydroxyphenyl)-5,6,6a,7,8,9-hexahydropyrrolo[1′,2′:4,5]pyrazino[2,3-c]pyridazin-8-yl)oxy)-2-methylbenzyl)piperazin-1-yl)-1-oxoisoindolin-2-yl)piperidine-2,6-dione] | < 100 | < 100 | > 75 | 50 to 75
9 | CC[C@]12CNc3nnc(-c4cccc(F)c4O)cc3N1C[C@H](Oc1cnc(CN3CCN(c4ccc5c(c4)CN([C@H]4CCC(=O)NC4=O)C5=O)CC3)c(C)c1)C2 [Example 74, (S)-3-(5-(4-((5-(((6aS,8R)-6a-ethyl-2-(3-fluoro-2-hydroxyphenyl)-5,6,6a,7,8,9-hexahydropyrrolo[1′,2′:4,5]pyrazino[2,3-c]pyridazin-8-yl)oxy)-3-methylpyridin-2-yl)methyl)piperazin-1-yl)-1-oxoisoindolin-2-yl)piperidine-2,6-dione] | < 100 | < 100 | > 75 | > 75
10 | Cc1nc(O[C@H]2CN3c4cc(-c5cccc(F)c5O)nnc4NC[C@@]3(C)C2)nc(C)c1CN1CCC(c2ccc3c(c2)C(=O)N([C@H]2CCC(=O)NC2=O)C3)CC1 [Example 78, (S)-3-(6-(1-((2-(((6aR,8R)-2-(3-fluoro-2-hydroxyphenyl)-6a-methyl-5,6,6a,7,8,9-hexahydropyrrolo[1′,2′:4,5]pyrazino[2,3-c]pyridazin-8-yl)oxy)-4,6-dimethylpyrimidin-5-yl)methyl)piperidin-4-yl)-1-oxoisoindolin-2-yl)piperidine-2,6-dione] | < 100 | > 1000 | > 75 | < 50
11 | O=C1CCC(N2Cc3ccc(N4CCN(Cc5ccc(O[C@@H]6C[C@@H]7CNc8nnc(-c9cc(F)cc(F)c9O)cc8N7C6)cc5F)CC4)cc3C2=O)C(=O)N1 (stereo partly drawn) [Example 13, 3-(6-(4-(4-(((6aR,8R)-2-(3,5-difluoro-2-hydroxyphenyl)-5,6,6a,7,8,9-hexahydropyrrolo[1′,2′:4,5]pyrazino[2,3-c]pyridazin-8-yl)oxy)-2-fluorobenzyl)piperazin-1-yl)-1-oxoisoindolin-2-yl)piperidine-2,6-dione] | < 100 | < 100 | > 75 | > 75
12 | O=C1CCC(N2Cc3ccc(N4CCN(Cc5ccc(O[C@@H]6C[C@@H]7CNc8nnc(-c9cccc(Cl)c9O)cc8N7C6)cc5)CC4)cc3C2=O)C(=O)N1 (stereo partly drawn) [Example 8, 3-(6-(4-(4-(((6aR,8R)-2-(3-chloro-2-hydroxyphenyl)-5,6,6a,7,8,9-hexahydropyrrolo[1′,2′:4,5]pyrazino[2,3-c]pyridazin-8-yl)oxy)benzyl)piperazin-1-yl)-1-oxoisoindolin-2-yl)piperidine-2,6-dione] | < 100 | < 100 | > 75 | > 75
